target: T1, Human TRPC6 (Homo sapiens, UniProt Q9Y210); assay: Evaluation of TRPC6 channel inhibitory activity (1), FLIPR Calcium 5 Assay Kit, OAG stimulation (Compound Nos. 1-1293); type: cell-based; conditions: Human TRPC6 stably-expressing cells, OAG 30 μM, FLIPR Calcium 5 Assay Kit; read-out: Inhibitory activity (pIC50 class) (converted)
T1 construct: expressed in transfected cells
T1 sequence (Q9Y210 1-931): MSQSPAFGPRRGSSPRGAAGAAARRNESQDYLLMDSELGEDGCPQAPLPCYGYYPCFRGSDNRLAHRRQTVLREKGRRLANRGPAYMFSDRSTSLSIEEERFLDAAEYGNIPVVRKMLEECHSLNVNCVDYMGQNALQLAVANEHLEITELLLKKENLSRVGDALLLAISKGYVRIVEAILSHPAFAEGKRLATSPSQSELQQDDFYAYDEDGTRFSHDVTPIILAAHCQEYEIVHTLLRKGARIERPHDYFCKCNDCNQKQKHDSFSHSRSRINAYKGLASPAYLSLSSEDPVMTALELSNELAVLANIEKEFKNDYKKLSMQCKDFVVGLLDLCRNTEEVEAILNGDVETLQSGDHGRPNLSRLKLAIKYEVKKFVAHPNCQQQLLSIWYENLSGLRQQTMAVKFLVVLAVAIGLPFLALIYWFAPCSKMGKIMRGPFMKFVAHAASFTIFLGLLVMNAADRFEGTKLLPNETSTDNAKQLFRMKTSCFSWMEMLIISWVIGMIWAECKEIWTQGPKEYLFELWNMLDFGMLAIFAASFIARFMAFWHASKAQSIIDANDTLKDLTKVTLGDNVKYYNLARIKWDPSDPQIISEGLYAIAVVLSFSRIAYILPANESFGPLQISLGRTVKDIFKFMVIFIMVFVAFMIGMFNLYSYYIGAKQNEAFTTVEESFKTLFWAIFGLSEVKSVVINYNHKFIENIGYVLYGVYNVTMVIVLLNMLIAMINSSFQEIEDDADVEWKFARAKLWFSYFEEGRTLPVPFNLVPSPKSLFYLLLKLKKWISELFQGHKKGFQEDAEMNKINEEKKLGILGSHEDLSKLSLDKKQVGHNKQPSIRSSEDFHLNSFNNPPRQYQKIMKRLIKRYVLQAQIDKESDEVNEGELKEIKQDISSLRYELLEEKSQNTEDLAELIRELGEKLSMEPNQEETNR
Outline: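 Readout is pIC50 from four-parameter logistic fitting of inhibition of the OAG-evoked (30 μM final) fluorescence calcium signal. Human TRPC6 stable cells are dye-loaded with probenecid, and compound is applied 20 min ahead of agonist.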

SMILES	IC50 [nM]
CCN(CC)c1cc(Oc2cc(C#N)ccc2-c2ccc(CCN)cc2)nc(C)n1 [Compound 15, 4-[4-(2-aminoethyl)phenyl]-3-[6-(diethylamino)-2-methylpyrimidin-4-yl]oxybenzonitrile]	10 to 1000
Cc1cc(Oc2cc(C#N)ccc2-c2ccc(C3OCCCC3N)cn2)cc(N2CCOCC2)n1 (stereo not drawn) [compound 539, 4-[5-(3-aminooxan-2-yl)pyridin-2-yl]-3-(2-methyl-6-morpholin-4-ylpyridin-4-yl)oxybenzonitrile]	10 to 1000
Cc1nc(NC(C)C)cc(Oc2cc(C#N)ccc2-c2ncc(CN)cn2)n1 [compound 630, 4-[5-(aminomethyl)pyrimidin-2-yl]-3-[2-methyl-6-(propan-2-ylamino)pyrimidin-4 yl]oxybenzonitrile]	10 to 1000
COc1ccccc1-c1cc(Oc2cc(C#N)ccc2-c2ccc(C(O)CN)cn2)n(C)n1 (stereo not drawn) [compound 320, 4-[5-(2-amino-1-hydroxyethyl)pyridin-2-yl]-3-[5-(2-methoxyphenyl)-2-methylpyrazol-3-yl]oxybenzonitrile]	< 10
Cc1nc(Oc2cc(C#N)ccc2-c2ncc([C@H](O)CN)cn2)cc(-c2ccccc2)n1 [compound 526, 4-[5-[(1S)-2-amino-1-hydroxyethyl]pyrimidin-2-yl]-3-(2-methyl-6-phenylpyrimidin-4-yl)oxybenzonitrile]	< 10
Cn1nc(C2CC2)cc1Oc1cc(C#N)ccc1-c1cc(N)nc2ccnn12 [compound 468, 4-(5-aminopyrazolo[1,5-a]pyrimidin-7-yl)-3-(5-cyclopropyl-2-methylpyrazol-3-yl)oxybenzonitrile]	> 1000
N#Cc1ccc(-c2ccc(C(CN)C(F)F)cc2)c(Oc2cnnc(N3CCOCC3)c2)c1 (stereo not drawn) [Compound 139, 4-[4-(3-amino-1,1-difluoropropan-2-yl)phenyl]-3-(6-morpholin-4 ylpyridazin-4-yl)oxybenzonitrile]	10 to 1000
Cc1cc(Oc2cc(C#N)ccc2-c2ncc(CCN3CCOCC3)cn2)cc(N2CCOCC2)n1 [compound 419, 3-(2-methyl-6-morpholin-4-ylpyridin-4-yl)oxy-4-[5-(2-morpholin-4-ylethyl)pyrimidin-2-yl]benzonitrile]	> 1000
N#Cc1ccc(-n2cc(CCN)cn2)c(Sc2cnnc(N3CCCC3)c2)c1 [compound 1247, 4-[4-(2-aminoethyl)pyrazol-1-yl]-3-(6-pyrrolidin-1-ylpyridazin-4-yl)sulfanylbenzonitrile]	10 to 1000
N#Cc1ccc(-n2cc(CCN)cn2)c(Oc2cnnc(N3CCCC3)c2)c1 [Compound 284, 4-[4-(2-Aminoethyl)pyrazol-1-yl]-3-(6-pyrrolidin-1-ylpyridazin-4-yl)oxybenzonitrile]	10 to 1000
Cn1nc(-c2ccccn2)cc1Oc1cc(C#N)ccc1-c1nccc(CN)n1 [compound 682, 4-[4-(aminomethyl)pyrimidin-2-yl]-3-(2-methyl-5-pyridin-2-ylpyrazol-3-yl)oxybenzonitrile]	10 to 1000
Cc1nc(-c2cccc(F)c2)cn1Cc1cc(C#N)ccc1-c1ccc(CCN)cn1 [compound 1156, 4-[5-(2-aminoethyl)pyridin-2-yl]-3-[[4-(3-fluorophenyl)-2-methylimidazol-1-yl]methyl]benzonitrile]	< 10
CC(C)NC(=O)C(N)c1ccc(-c2ccc(C#N)cc2Oc2cc(C3CC3)nn2C)nc1 (stereo not drawn) [compound 490, 2-amino-2-[6-[4-cyano-2-(5-cyclopropyl-2-methylpyrazol-3-yl)oxyphenyl]pyridin-3-yl]-N-propan-2-ylacetamide]	> 1000
CCc1cc(Oc2cc(C#N)ccc2-c2ccc(CN)nc2)n(C)n1 [compound 330, 4-[6-(aminomethyl)pyridin-3-yl]-3-(5-ethyl-2-methylpyrazol-3-yl)oxybenzonitrile]	> 1000
Cn1nc(-c2ccccc2)c(F)c1Oc1cc(C#N)ccc1-c1ncc(CCN)cn1 [compound 360, 4-[5-(2-aminoethyl)pyrimidin-2-yl]-3-(4-fluoro-2-methyl-5-phenylpyrazol-3-yl)oxybenzonitrile]	< 10
Cn1nc(-c2ccccc2OCc2ccccc2)cc1Oc1cc(C#N)ccc1-c1ccc(C(O)CN)cn1 (stereo not drawn) [compound 322, 4-[5-(2-amino-1-hydroxyethyl)pyridin-2-yl]-3-[2-methyl-5-(2-phenylmethoxyphenyl)pyrazol-3-yl]oxybenzonitrile]	10 to 1000
Cc1cc(-c2ccccc2)nn1Cc1cc(C#N)ccc1-c1ccc(CCN)cn1 [compound 1158, 4-[5-(2-aminoethyl)pyridin-2-yl]-3-[(5-methyl-3-phenylpyrazol-1-yl)methyl]benzonitrile]	> 1000
Cc1nc(Oc2cc(C#N)ccc2-c2ncc(CCN)cn2)cc(N2CCC(F)CC2)n1 [compound 668, 4-[5-(2-aminoethyl)pyrimidin-2-yl]-3-[6-(4-fluoropiperidin-1-yl)-2-methylpyrimidin-4-yl]oxybenzonitrile]	< 10
N#Cc1ccc(-c2ncc(CN)cn2)c(C(=O)c2cnn(-c3ccncn3)c2)c1 [compound 1055, 4-[5-(aminomethyl)pyrimidin-2-yl]-3-(1-pyrimidin-4-ylpyrazole-4-carbonyl)benzonitrile]	> 1000
Cc1nc(Oc2cc(C#N)ccc2-n2cc([C@@H](O)CN)cn2)cc(N2CCCCC2)n1 [Compound 233, 4-[4-[(1R)-2-amino-1-hydroxyethyl]pyrazol-1-yl]-3-(2-methyl-6-piperidin-1-ylpyrimidin-4-yl)oxybenzonitrile]	< 10
Cc1nc(Oc2cc(C#N)ccc2-n2cc([C@@H](O)CN)cn2)cc(N2CCCC(F)(F)C2)n1 [Compound 257, 4-[4-[(1R)-2-amino-1-hydroxyethyl]pyrazol-1-yl]-3-[6-(3,3-difluoropiperidin-1-yl)-2-methylpyrimidin-4-yl]oxybenzonitrile]	10 to 1000
NCCc1cnc(-c2ccc(F)cc2Oc2cnn(-c3ccccn3)c2)nc1 [compound 1004, 2-[2-[4-fluoro-2-(1-pyridin-2-ylpyrazol-4-yl)oxyphenyl]pyrimidin-5-yl]ethanamine]	10 to 1000
N#Cc1ccc(-c2ncc(CN)cn2)c(Oc2cncc(N3CCOCC3)c2)c1 [compound 918, 4-[5-(aminomethyl)pyrimidin-2-yl]-3-(5-morpholin-4-ylpyridin-3-yl)oxybenzonitrile]	> 1000
Cn1nc(C2CC2)cc1Oc1cc(C#N)ccc1-c1ccc(C(N)C(=O)N2CCOCC2)cn1 (stereo not drawn) [Compound No. 487, 4-[5-(1-Amino-2-morpholin-4-yl-2-oxoethyl)pyridin-2-yl]-3-(5-cyclopropyl-2-methylpyrazol-3-yl)oxybenzonitrile]	> 1000
Cc1nc(Oc2cc(C#N)ccc2-c2ccc(CCN)cc2)cc(N2CCCC(F)(F)C2)n1 [Compound 19, 4-[4-(2-aminoethyl)phenyl]-3-[6-(3,3-difluoropiperidin-1-yl)-2-methylpyrimidin-4-yl]oxybenzonitrile]	10 to 1000
Cn1nc(-c2ccccc2)cc1Oc1cc(C#N)ccc1-c1cnc(CCN)cn1 [compound 313, 4-[5-(2-aminoethyl)pyrazin-2-yl]-3-(2-methyl-5-phenylpyrazol-3-yl)oxybenzonitrile]	< 10
Cc1cc(Oc2cc(C#N)ccc2-c2ccc(C[C@H](N)C(=O)O)cn2)cc(N2CCOCC2)n1 [compound 611, (2S)-2-amino-3-[6-[4-cyano-2-(2-methyl-6-morpholin-4-ylpyridin-4-yl)oxyphenyl]pyridin-3-yl]propanoic acid]	> 1000
